Test results from patent publication US20080076747A1, “Fungicidal Mixtures” (BASF AKTIENGESELLSCHAFT, priority 2004, published 2008).

Assays:
Botrytis cinerea = test: Activity against the gray mold pathogen Botrytis cinerea in the microtiter test; assay type: cell-based; conditions: 1 ppm; microtiter plate, 405 nm, day 7 after inoculation
Excerpt: For the microtiter tests, the active compounds were formulated separately as a stock solution having a concentration of 10 000 ppm in DMSO.
In the microtiter tests, the measured parameters were offset with the growth of the active-compound-free control variant and the fungus- and active-compound-free blank value, in order to determine the relative growth in % of the pathogens in the individual active compounds.
The stock solutions were mixed according to the ratio, pipetted into a microtiter plate (MTP) and diluted to the stated active compound concentration using a malt-based aqueous nutrient medium for fungi. An aqueous spore suspension of Botrytis cinerea was then added. The plates were placed in a water vapor-saturated chamber at temperatures of 18° C. Using an absorption photometer, the MTPs were measured at 405 nm on day 7 after the inoculation.

Pyrenophora teres = test: Activity against net blotch of barley caused by Pyrenophora teres, protective application; assay type: in vivo, Pyrenophora [syn. Drechslera] teres on barley; conditions: barley seedlings, rated after 6 days
Method: (§1) The active compounds were separately or jointly prepared as a stock solution comprising 25 mg of active compound which was made up to 10 ml using a mixture of acetone and/or DMSO and the emulsifier Uniperol® EL (wetting agent having emulsifying and dispersing action based on ethoxylated alkylphenols) in a volume ratio of solvent/emulsifier of 99 to 1. The mixture was then made up with water to 100 ml. This stock solution was diluted with the solvent/emulsifier/water mixture described to the concentration of active compounds stated below.
(§2) The visually determined percentages of infected leaf areas were converted into efficacies in % of the untreated control:
The efficacy (E) is calculated as follows using Abbot's formula: E=(1−α/β)·100 α corresponds to the fungicidal infection of the treated plants in % and β corresponds to the fungicidal infection of the untreated (control) plants in %
An efficacy of 0 means that the infection level of the treated plants corresponds to that of the untreated control plants; an efficacy of 100 means that the treated plants were not infected.
Leaves of potted barley seedlings were sprayed to runoff point with an aqueous suspension having the concentration of active compound stated below. After 5 days, the test plants were inoculated with an aqueous spore suspension of Pyrenophora [syn. Drechslera] teres, the net blotch pathogen. The test plants were then placed in a greenhouse at temperatures between 20 and 24° C. and 95 to 100% relative atmospheric humidity. After 6 days, the extent of the disease development was determined visually in % infection of the entire leaf area.

Alternaria solani = test: Activity against early blight of tomato caused by Alternaria solani; assay type: in vivo, Alternaria solani on tomato; conditions: 4 ppm; tomato cultivar Goldene Königin, sprayed 1 day before infection, rated after 5 days
Method: as §1, §2
The efficacy (E) is calculated as follows using Abbot's formula: E=(1−α/β)·100 α corresponds to the fungicidal infection of the treated plants in % and β corresponds to the fungicidal infection of the untreated (control) plants in % […]
Leaves of potted plants of the cultivar “Goldene Königin” were sprayed to runoff point with an aqueous suspension having the concentration of active compound stated below. […] After 5 days, the disease on the untreated but infected control plants had developed to such an extent that the infection could be determined visually in %.

Row | Compound | Observed activity (%) (Botrytis cinerea) | Observed activity (%) (Pyrenophora teres; 63 ppm, sprayed 5 days before inoculation) | Observed activity (%) (Alternaria solani) | Observed activity (%) (Pyrenophora teres; 16 ppm, protective) | Observed activity (%) (Pyrenophora teres; 250 ppm, protective)
1 | CO/C=C(/C(=O)OC)c1ccccc1CO/N=C(C)/C=C/c1ccc(Cl)cc1 [enestroburin (I), methyl 2-{2-[3-(4-chlorophenyl)-1-methylallylideneaminooxymethyl]phenyl}-3-methoxyacrylate] | 12% | 56% | 22% | – | –
2 | Cc1ccc(C(C)NC(=O)[C@@H](NC(=O)OC(C)C)C(C)C)cc1 (stereo partly drawn) [iprovalicarb (II-11), isopropyl [(1S)-2-methyl-1-(1-p-tolylethylcarbamoyl)propyl]carbamate] | – | – | 0% | – | –
3 | manganese ethylenebis(dithiocarbamate) (polymer) complex zinc salt [mancozeb (II-1)] | – | – | – | 0% | 22%
4 | zinc ammoniate ethylenebis(dithiocarbamate) [metiram (II-4)] | 7% | – | – | – | –
